# PubChem BioAssay (NCI)
#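 Interpolation was linear, between the two tested concentrations surrounding the appropriate level; five concentrations were tested over 48 hours in 96-well plates. TGI is the concentration that stops growth completely.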
# Assays:
# Experiment in all cases: DTP human tumour cell line panel, 48 h
# [1] = test system: HT29 colon
# [2] = test system: 786-0 renal
# [3] = test system: SK-MEL-2 melanoma
# [4] = test system: CCRF-CEM leukemia
# [5] = test system: MOLT-4 leukemia
# [6] = test system: SN12C renal
# [7] = test system: MALME-3M melanoma
# [8] = test system: PC-3 prostate
# [9] = test system: BT-549 breast
# [10] = test system: HS 578T breast
# [11] = test system: OVCAR-3 ovarian
# [12] = test system: TK-10 renal
# [13] = test system: HCT-15 colon
# [14] = test system: T-47D breast
# [15] = test system: M14 melanoma
# [16] = test system: UO-31 renal
# [17] = test system: COLO 205 colon
# [18] = test system: SF-268 CNS
# [19] = test system: SF-295 CNS
# [20] = test system: MDA-MB-435
# [21] = test system: A498 renal
# [22] = test system: SF-539 CNS
# [23] = test system: NCI-H522 lung
# [24] = test system: UACC-62 melanoma
# [25] = test system: NCI/ADR-RES ovarian
# [26] = test system: A549 NSCLC
# [27] = test system: HOP-92 NSCLC
# [28] = test system: HOP-62 NSCLC
# [29] = test system: UACC-257 melanoma
# [30] = test system: MCF7 breast
# [31] = test system: SR leukemia
# [32] = test system: MDA-N
# [33] = test system: SNB-75 CNS
# [34] = test system: SK-OV-3 ovarian
# [35] = test system: SW-620 colon
# [36] = test system: DU-145 prostate
# [37] = test system: HCT-116 colon
# [38] = test system: K-562 leukemia
# [39] = test system: NCI-H23 lung
# [40] = test system: NCI-H460 lung
# [41] = test system: SK-MEL-5 melanoma
# [42] = test system: U251 CNS
# [43] = test system: IGROV1 ovarian
# [44] = test system: LOX IMVI melanoma
# [45] = test system: HL-60(TB) leukemia
# [46] = test system: OVCAR-8 ovarian
# [47] = test system: KM12 colon
# [48] = test system: ACHN renal
# [49] = test system: SNB-19 CNS
# [50] = test system: OVCAR-5 ovarian
# [51] = test system: MDA-MB-231 breast
# [52] = test system: SK-MEL-28 melanoma
# [53] = test system: NCI-H226 lung
# [54] = test system: OVCAR-4 ovarian
# [55] = test system: EKVX NSCLC
# [56] = test system: RXF 393 renal
# [57] = test system: RPMI-8226 leukemia
# [58] = test system: HCC-2998 colon
# [59] = test system: CAKI-1 renal
smiles,measurement,setting,value
O=C(NC(=S)Nc1ccc(Br)cc1)c1ccc2c(c1)Sc1ccccc1O2,TGI,[1],> 100 µM
same,TGI,[2],> 100 µM
same,TGI,[3],> 100 µM
same,TGI,[4],> 100 µM
same,TGI,[5],> 100 µM
same,TGI,[6],> 100 µM
same,TGI,[7],> 100 µM
same,TGI,[8],> 100 µM
same,TGI,[9],> 100 µM
same,TGI,[10],> 100 µM
same,TGI,[11],> 100 µM
same,TGI,[12],> 100 µM
same,TGI,[13],> 100 µM
same,TGI,[14],> 100 µM
same,TGI,[15],> 100 µM
same,TGI,[16],> 100 µM
same,TGI,[17],> 100 µM
same,TGI,[18],> 100 µM
same,TGI,[19],> 100 µM
same,TGI,[20],> 100 µM
same,TGI,[21],66.5 µM
same,TGI,[22],> 100 µM
same,TGI,[23],> 100 µM
same,TGI,[24],> 100 µM
same,TGI,[25],> 100 µM
same,TGI,[26],> 100 µM
same,TGI,[27],74.9 µM
same,TGI,[28],> 100 µM
same,TGI,[29],> 100 µM
same,TGI,[30],> 100 µM
same,TGI,[31],> 100 µM
same,TGI,[32],> 100 µM
same,TGI,[33],19.3 µM
same,TGI,[34],> 100 µM
same,TGI,[35],> 100 µM
same,TGI,[36],> 100 µM
same,TGI,[37],> 100 µM
same,TGI,[38],> 100 µM
same,TGI,[39],> 100 µM
same,TGI,[40],> 100 µM
same,TGI,[41],> 100 µM
same,TGI,[42],> 100 µM
same,TGI,[43],> 100 µM
same,TGI,[44],> 100 µM
same,TGI,[45],> 100 µM
same,TGI,[46],> 100 µM
same,TGI,[47],> 100 µM
same,TGI,[48],> 100 µM
same,TGI,[49],> 100 µM
same,TGI,[50],> 100 µM
same,TGI,[51],> 100 µM
same,TGI,[52],> 100 µM
same,TGI,[53],> 100 µM
NCCCn1c(Cl)nc2ccccc21,TGI,[1],> 100 µM
same,TGI,[54],> 100 µM
same,TGI,[2],> 100 µM
same,TGI,[3],> 100 µM
same,TGI,[4],> 100 µM
same,TGI,[5],> 100 µM
same,TGI,[6],> 100 µM
same,TGI,[7],> 100 µM
same,TGI,[8],> 100 µM
same,TGI,[9],> 100 µM
same,TGI,[10],> 100 µM
same,TGI,[11],> 100 µM
same,TGI,[13],> 100 µM
same,TGI,[14],> 100 µM
same,TGI,[15],> 100 µM
same,TGI,[16],> 100 µM
same,TGI,[55],> 100 µM
same,TGI,[17],> 100 µM
same,TGI,[18],> 100 µM
same,TGI,[19],> 100 µM
same,TGI,[20],> 100 µM
same,TGI,[21],> 100 µM
same,TGI,[56],> 100 µM
same,TGI,[23],> 100 µM
same,TGI,[24],> 100 µM
same,TGI,[25],> 100 µM
same,TGI,[26],> 100 µM
same,TGI,[28],> 100 µM
same,TGI,[57],> 100 µM
same,TGI,[30],> 100 µM
same,TGI,[31],> 100 µM
same,TGI,[32],> 100 µM
same,TGI,[33],> 100 µM
same,TGI,[34],> 100 µM
same,TGI,[35],> 100 µM
same,TGI,[36],> 100 µM
same,TGI,[37],> 100 µM
same,TGI,[38],> 100 µM
same,TGI,[39],> 100 µM
same,TGI,[40],> 100 µM
same,TGI,[41],> 100 µM
same,TGI,[58],> 100 µM
same,TGI,[42],> 100 µM
same,TGI,[43],> 100 µM
same,TGI,[44],> 100 µM
same,TGI,[45],> 100 µM
same,TGI,[46],> 100 µM
same,TGI,[47],> 100 µM
same,TGI,[48],> 100 µM
same,TGI,[49],> 100 µM
same,TGI,[50],> 100 µM
same,TGI,[59],> 100 µM
same,TGI,[51],> 100 µM
same,TGI,[52],> 100 µM
same,TGI,[53],> 100 µM
